Results as given in US20080031866A1, “METHOD FOR MODULATING THE PHARMACOKINETICS AND METABOLISM OF A THERAPEUTIC AGENT” (priority 2006, published 2008).
≈ marks a conversion by molar mass, not a printed value. Read-outs that look alike come from different tables or passages of the source.

Experiments:
Solubility = format: physicochemical
[1] = Intracolonic dosing with and without β-glucuronidase, catheterized rat; format: in vivo; details: male, Sprague Dawley, rat, plasma, 10 mg/kg; for Cmax: read-out: Cmax average ± standard deviation; for concentration at 0 h / concentration at 0.25 h / concentration at 0.5 h / concentration at 1 h / concentration at 2 h / concentration at 3 h / concentration at 4 h / concentration at 5 h / concentration at 6 h: other: intracolonic
Description: A catheterized rat model was used in which the agent alone or agent and β-glucuronidase enzyme was administered intraduodenally or intracolonically. The intraduodenal and intracolonic dosing was intended to prevent the potential for loss of enzymatic activity when orally dosing the β-glucuronidase (e.g. by degradation in the stomach). […]
For the oral gavage dosing, Compound 1 was prepared in neat PEG-400. For the intraduodenal and intracolonic dosing solutions, Compound 1 was added to neat Tween 80, the mixture was sonicated for thirty minutes at 45° C. until Compound 1 was completely dissolved and then deionized (DI) water was added to form a solution consisting of 20% Tween 80 and 80% DI water by weight.
For the oral enzyme solutions, β-glucuronidase was added to the final formulation at a concentration of 57,600 units/ml.
For the intraduodenal and intracolonic dosing, male Sprague Dawley rats weighing 300-400 g were purchased from Charles River Labs. All rat experiments were conducted under approved animal protocols. The rats were catheterized at Charles River Labs and had one or more of the following chronic catheters for dosing and sampling: jugular/carotid, duodenal, and colonic. Rats were limited to only one GI catheter and one vascular catheter. For IV dosing, rats were purchased with jugular and carotid catheters for dosing in the jugular catheter and blood sampling through the carotid catheter. For intraduodenal/intracolonic dosing, rats had one of the GI catheters for dosing and a carotid catheter for blood sampling.
The surgeries were done two weeks prior to start of testing. Rats were fed 4 hours post dose administration. All rats were dosed without anesthesia and sacrificed at the end of the study.
A quantitative method for determining the amount of (6,7-dimethoxy-2,4-dihydro-indeno[1,2-c]pyrazol-3-yl)-(3-fluoro-phenyl)-amine Compound 1 and its major metabolites, glucuronide A (Cpd 1-GluA) and glucuronide B (Cpd 1-GluB) (see Scheme A) in rat plasma was developed using phenacetin as an internal standard. [drawing 1]
The two glucuronide conjugates were prepared and purified to permit accurate quantification of the levels of intact parent Compound 1 versus Cpd 1-GluA and Cpd 1-GluB. Each standard curve for Compound 1, Cpd 1-GluA, and Cpd 1-GluB generated from rat plasma included ten concentration levels. […] The quantitative procedure for each sample included: sample preparation, HPLC separation and mass spectrometry detection.
The rat plasma was prepared using protein precipitation techniques. Reference standards and quality control samples in rat plasma for Compound 1 were transferred to a 96 deep-well plate. The precipitation solution contained 100 ng/ml of internal standard in acetonitrile. 300 μl of precipitation solution were added to 100 μl of each standard, quality control and plasma sample. Samples were vortexed for 10 mins, then centrifuged at 4500 RPM for 10 mins. 10 μl of each sample were injected for LC/MS/MS analysis.
The HPLC column chosen for the bioanalysis was purchased from Thermo Electron (Hypersil BetaBasic C18, 5 cm×2.1 mm). The eluting solvents were composed of Solvent A: 0.1% formic acid in H2O and Solvent B: 0.1% formic acid in acetonitrile. A step gradient was used and flow rate was 300 μl/min. The total run time was 3.2 mins. Solvent B was increased from 35% at 0 min to 75% at 2.1 mins and decreased back to 35% at 2.2 mins. The retention times for Compound 1, phenacetin, Cpd 1-GluA and Cpd 1-GluB were 1.1 min, 0.9 min, 1.3 min, and 1.6 min, respectively.
API3000 with a Turbo Ionspray interface from Applied Biosystems was used for the detection of Compound 1, the internal standard and major metabolites. Electrospray ionization was performed in the positive ion mode heated nebulizer with a temperature of 300° C. LC/MS/MS chromatograms were acquired in MRM (multiple reaction mode). […]

[2] = Absorption (physicochemical properties)
[3] = rats N=6, Compound 1 10 mg/kg intracolonic with β-glucuronidase
[4] = rats N=6, Compound 1 10 mg/kg intracolonic without enzyme

- solubility (Solubility; aqueous media, aqueous buffer, pH 3.0, read-out: Solubility in aqueous media): < 0.006 mg/mL
- solubility (Solubility; aqueous media, aqueous buffer, pH 7.0, read-out: Solubility in aqueous media): < 0.002 mg/mL
- solubility (Solubility; aqueous with cosolvent or surfactant or cyclodextrin, 20/80-weight% Tween 80/DI water, read-out: Solubility): 10 mg/mL (≈ 30.7 mM)
- solubility (Solubility; neat PEG-400, organic solvent or mixture, read-out: Solubility): 7.5 mg/mL (≈ 23.1 mM)
- AUC ([1]; rats N=6, Compound 1 10 mg/kg intracolonic with β-glucuronidase, read-out: AUC average ± standard deviation 0 to 6 hours): 0.0095 ± 0.0025 µg·h/mL
- Cmax [1, 3]: 4 ± 0.6 ng/mL
- AUC ([1]; rats N=6, Compound 1 10 mg/kg intracolonic without enzyme, read-out: AUC average ± standard deviation 0 to 6 hours): 0.0155 ± 0.0249 µg·h/mL
- Cmax [1, 4]: 9.5 ± 17.9 ng/mL
- AUC ([1]; with and without β-glucuronidase, read-out: AUC of parent after intracolonic administration): < 0.016 µg·h/mL
- concentration at 0 h [1, 3]: 0 µg/mL
- concentration at 0.25 h [1, 3]: 129 ± 41.4 ng/mL
- concentration at 0.5 h [1, 3]: 107 ± 26.6 ng/mL
- concentration at 1 h [1, 3]: 75.6 ± 35 ng/mL
- concentration at 2 h [1, 3]: 21.2 ± 12.5 ng/mL
- concentration at 3 h [1, 3]: 12.9 ± 4.3 ng/mL
- concentration at 4 h [1, 3]: 9.5 ± 3.1 ng/mL
- concentration at 5 h [1, 3]: 3.7 ± 6.3 ng/mL
- concentration at 6 h [1, 3]: 1.7 ± 2.7 ng/mL
- concentration at 0 h [1, 4]: 0 µg/mL
- concentration at 0.25 h [1, 4]: 6.4 ± 11.5 ng/mL
- concentration at 0.5 h [1, 4]: 8 ± 15.7 ng/mL
- concentration at 1 h [1, 4]: 8.7 ± 18.2 ng/mL
- concentration at 2 h [1, 4]: 2 ± 3.1 ng/mL
- concentration at 3 h [1, 4]: 1.1 ± 2.7 ng/mL
- concentration at 4 h [1, 4]: 0 ng/mL
- concentration at 5 h [1, 4]: 0 ng/mL
- concentration at 6 h [1, 4]: 0 ng/mL
- Absorption [2]: 1.3e-05 cm/s
SMILES: COc1cc2c(cc1OC)-c1n[nH]c(Nc3cccc(F)c3)c1C2 [Compound 1, (6,7-dimethoxy-2,4-dihydro-indeno[1,2-c]pyrazol-3-yl)-(3-fluoro-phenyl)-amine]
